According to ChEMBL document CHEMBL1201862, “PubChem BioAssay data set” (2004):
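Exposure lasted 48 hours, with cells grown in 96-well plates and compounds tested at five concentrations. Here, GI50 denotes the concentration required for 50% inhibition of growth.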 The source made the active and inactive calls. No stated cut-off is given here; in the data, active = GI50 up to about 1.1 µM and inactive = higher.

How the values were obtained:
Assay in all cases: growth of human tumour cells (NCI), 48 h
[1] = tested on: 786-0
[2] = tested on: A498
[3] = tested on: A549
[4] = tested on: BT-549
[5] = tested on: CCRF-CEM
[6] = tested on: COLO 205
[7] = tested on: DU-145
[8] = tested on: EKVX
[9] = tested on: HCT-116
[10] = tested on: HOP-62
[11] = tested on: IGROV-1
[12] = tested on: K562
[13] = tested on: LOX IMVI
[14] = tested on: MDA-MB-435
[15] = tested on: NCI-H522
[16] = tested on: OVCAR-3
[17] = tested on: OVCAR-4
[18] = tested on: OVCAR-5
[19] = tested on: PC-3
[20] = tested on: RPMI-8226
[21] = tested on: SF-295
[22] = tested on: SK-MEL-5
[23] = tested on: SK-OV-3
[24] = tested on: SW-620
[25] = tested on: TK-10
[26] = tested on: UACC-257
[27] = tested on: UACC-62
[28] = tested on: ACHN
[29] = tested on: CAKI-1
[30] = tested on: HCC 2998
[31] = tested on: HCT-15
[32] = tested on: HL-60
[33] = tested on: HOP-92
[34] = tested on: HT-29
[35] = tested on: Hs-578T
[36] = tested on: KM12
[37] = tested on: M14
[38] = tested on: MCF7
[39] = tested on: MDA-MB-231
[40] = tested on: MDA-N
[41] = tested on: MOLT-4
[42] = tested on: Malme-3M
[43] = tested on: NCI-H226
[44] = tested on: NCI-H23
[45] = tested on: NCI-H460
[46] = tested on: NCI/ADR-RES
[47] = tested on: OVCAR-8
[48] = tested on: SF-268
[49] = tested on: SF-539
[50] = tested on: SK-MEL-28
[51] = tested on: SK-MEL-2
[52] = tested on: SNB-19
[53] = tested on: SR
[54] = tested on: U-251
[55] = tested on: UO-31
[56] = tested on: RXF 393

SMILES: COc1cc2c[n+](C)c3c4cc(OC)c(OC)cc4ccc3c2cc1OC
- GI50 [1]: > 58.5 µM (inactive)
- GI50 [2]: > 100 µM (inactive)
- GI50 [3]: 58.7 µM (inactive)
- GI50 [4]: 20.4 µM (inactive)
- GI50 [5]: 18.8 µM (inactive)
- GI50 [6]: 11.8 µM (inactive)
- GI50 [7]: 25 µM (inactive)
- GI50 [8]: > 63 µM (inactive)
- GI50 [9]: 68.5 µM (inactive)
- GI50 [10]: 97.7 µM (inactive)
- GI50 [11]: 23 µM (inactive)
- GI50 [12]: 16.6 µM (inactive)
- GI50 [13]: 54 µM (inactive)
- GI50 [14]: > 85.7 µM (inactive)
- GI50 [15]: 7.11 µM (inactive)
- GI50 [16]: 29.3 µM (inactive)
- GI50 [17]: > 38.5 µM (inactive)
- GI50 [18]: > 100 µM (inactive)
- GI50 [19]: 74.1 µM (inactive)
- GI50 [20]: 57.1 µM (inactive)
- GI50 [21]: 69 µM (inactive)
- GI50 [22]: 32 µM (inactive)
- GI50 [23]: 88.9 µM (inactive)
- GI50 [24]: > 66.1 µM (inactive)
- GI50 [25]: > 100 µM (inactive)
- GI50 [26]: 74.1 µM (inactive)
- GI50 [27]: > 82.8 µM (inactive)

SMILES: C=CCNC(=O)/C(Cc1cc(Br)c(OC)c(Br)c1O)=N\O
- GI50 [1]: 2.61 µM (inactive)
- GI50 [2]: 10.1 µM (inactive)
- GI50 [3]: 6.68 µM (inactive)
- GI50 [28]: 13.4 µM (inactive)
- GI50 [4]: 3.03 µM (inactive)
- GI50 [29]: 5.18 µM (inactive)
- GI50 [6]: 12.3 µM (inactive)
- GI50 [7]: 5.3 µM (inactive)
- GI50 [8]: 3.81 µM (inactive)
- GI50 [30]: 4.25 µM (inactive)
- GI50 [9]: 3.01 µM (inactive)
- GI50 [31]: 2.57 µM
- GI50 [32]: 1.29 µM (inactive)
- GI50 [10]: 2.79 µM (inactive)
- GI50 [33]: 4.65 µM (inactive)
- GI50 [34]: 15 µM (inactive)
- GI50 [35]: 1.32 µM (inactive)
- GI50 [11]: 4.57 µM (inactive)
- GI50 [12]: 2.37 µM (inactive)
- GI50 [36]: 2.77 µM (inactive)
- GI50 [13]: 5.68 µM (inactive)
- GI50 [37]: 4.22 µM (inactive)
- GI50 [38]: 4.17 µM (inactive)
- GI50 [39]: 6.73 µM (inactive)
- GI50 [14]: 0.515 µM (active)
- GI50 [40]: 0.334 µM (active)
- GI50 [41]: 4.76 µM (inactive)
- GI50 [42]: 1.34 µM (inactive)
- GI50 [43]: 2.59 µM (inactive)
- GI50 [44]: 4.16 µM (inactive)
- GI50 [45]: 3.84 µM (inactive)
- GI50 [15]: 1.78 µM (inactive)
- GI50 [46]: 2.44 µM (inactive)
- GI50 [16]: 2.38 µM (inactive)
- GI50 [17]: 7.23 µM (inactive)
- GI50 [18]: 5.43 µM (inactive)
- GI50 [47]: 4.65 µM (inactive)
- GI50 [19]: 6.46 µM (inactive)
- GI50 [20]: 4.23 µM (inactive)
- GI50 [48]: 3.58 µM (inactive)
- GI50 [21]: 3.64 µM (inactive)
- GI50 [49]: 3.6 µM (inactive)
- GI50 [50]: 3.53 µM (inactive)
- GI50 [51]: 7.73 µM (inactive)
- GI50 [22]: 1.78 µM (inactive)
- GI50 [52]: 4.41 µM (inactive)
- GI50 [53]: 1.17 µM (inactive)
- GI50 [24]: 3.15 µM (inactive)
- GI50 [25]: 10.6 µM (inactive)
- GI50 [54]: 4.53 µM (inactive)
- GI50 [26]: 6.15 µM (inactive)
- GI50 [27]: 8.75 µM (inactive)
- GI50 [55]: 3.49 µM (inactive)

SMILES: Cc1cc(C)nc(NCCC(O)(P(=O)(O)O)P(=O)(O)O)n1
- GI50 [1]: > 100 µM (inactive)
- GI50 [3]: > 100 µM (inactive)
- GI50 [28]: > 100 µM (inactive)
- GI50 [4]: > 100 µM (inactive)
- GI50 [29]: > 100 µM (inactive)
- GI50 [6]: > 100 µM (inactive)
- GI50 [7]: > 100 µM (inactive)
- GI50 [8]: > 100 µM (inactive)
- GI50 [30]: > 100 µM (inactive)
- GI50 [9]: > 100 µM (inactive)
- GI50 [31]: > 100 µM
- GI50 [10]: > 100 µM (inactive)
- GI50 [11]: > 100 µM (inactive)
- GI50 [36]: > 100 µM (inactive)
- GI50 [13]: > 100 µM (inactive)
- GI50 [37]: > 100 µM (inactive)
- GI50 [38]: 92.5 µM (inactive)
- GI50 [39]: > 100 µM (inactive)
- GI50 [40]: > 100 µM (inactive)
- GI50 [42]: > 100 µM (inactive)
- GI50 [43]: > 100 µM (inactive)
- GI50 [44]: > 100 µM (inactive)
- GI50 [45]: > 100 µM (inactive)
- GI50 [15]: > 100 µM (inactive)
- GI50 [46]: > 100 µM (inactive)
- GI50 [16]: 39.2 µM (inactive)
- GI50 [18]: > 100 µM (inactive)
- GI50 [19]: > 100 µM (inactive)
- GI50 [56]: > 100 µM (inactive)
- GI50 [48]: > 100 µM (inactive)
- GI50 [21]: > 100 µM (inactive)
- GI50 [49]: > 100 µM (inactive)
- GI50 [22]: > 100 µM (inactive)
- GI50 [23]: > 100 µM (inactive)
- GI50 [52]: > 100 µM (inactive)
- GI50 [25]: > 100 µM (inactive)
- GI50 [26]: > 100 µM (inactive)
- GI50 [27]: > 100 µM (inactive)
- GI50 [55]: > 100 µM (inactive)
